Measurements reported in US20240287046A1, “COMPOUNDS AND RADIOLIGANDS FOR TARGETING NEUROTENSIN RECEPTOR AND USES THEREOF” (Full-Life Technologies HK Limited, priority 2022, published 2024).

Tested on: ASPC-1 tumor-bearing mice
Assay: Biodistribution of radionuclide labeled complexes in ASPC-1 tumor-bearing mice
Type: in vivo, BALB/c nude mice
Method: The BALB/c nude mice (Charles River, Beijing) were utilized to establish the xenografted model for biodistribution study. All animal care and experimental procedure were performed by following the animal protocols approved by the ethics committee of China Institute of Radiation Protection.
Briefly, each mouse was inoculated with approximately 4×10^6 ASPC-1 cells (human pancreatic cancer cell line) or HT-29 cells (human colorectal adenocarcinoma cell line) expressing human NTSR-1 by subcutaneous injection at rear flank. After inoculation, the xenografted tumors were allowed to grow for ˜2-4 weeks till the tumor weight reached to about 0.05 to 0.50 g (0.20 g in average).
Biodistribution studies were performed by administrating the radionuclide labeled test compound at a dose of ˜30-50 μCi (100 μL in 0.9% NaCl, ˜1.11-1.85 MBq, with specific activity 30-250 μCi/nmol) to each animal through tail vein injection.
At different time points after the administration, the mice treated with each compound were euthanized. The tissues and organs of the animals in each group were collected, excised, weighed, and analyzed in a PerkinElmer 2480 WIZARD2γ counter, and the percent injected dose (% ID) and % ID/g of each organ or tissue were calculated.

Row | Structure (SMILES) | % ID/g (4 h) Blood (Blood) | % ID/g (24 h) Blood (Blood) | % ID/g (4 h) Femur (Femur) | % ID/g (24 h) Femur (Femur) | % ID/g (4 h) Heart (Heart) | % ID/g (24 h) Heart (Heart) | % ID/g (4 h) Intestine (Intestine) | % ID/g (24 h) Intestine (Intestine) | % ID/g (4 h) Kidney (Kidney) | % ID/g (24 h) Kidney (Kidney) | % ID/g (4 h) Liver (Liver) | % ID/g (24 h) Liver (Liver) | % ID/g (4 h) Lung (Lung) | % ID/g (24 h) Lung (Lung) | % ID/g (4 h) Muscle (Muscle) | % ID/g (24 h) Muscle (Muscle) | % ID/g (4 h) Pancreas (Pancreas) | % ID/g (24 h) Pancreas (Pancreas) | % ID/g (4 h) Spleen (Spleen) | % ID/g (24 h) Spleen (Spleen) | further results
1 | COc1cccc(OC)c1-c1cc(C(=O)NC2(C(=O)O)C3CC4CC(C3)CC2C4)nn1-c1ccc(SCCCN(C)CCCN(C)C(=O)CN2CCN(CC(=O)[O-])CCN(CC(=O)[O-])CCN(CC(=O)[O-])CC2)cc1C(C)C.[177Lu+3] (stereo not shown) [^177Lu-I-8] | 6.25 ± 1.53 % ID/g | 0.23 ± 0.12 % ID/g | 0.89 ± 0.74 % ID/g | 0.4 ± 0.16 % ID/g | 2.39 ± 0.51 % ID/g | 0.5 ± 0.12 % ID/g | 3.51 ± 1.14 % ID/g | 1.00 ± 0.34 % ID/g | 3.09 ± 1.79 % ID/g | 1.47 ± 1.07 % ID/g | 7.4 ± 2.9 % ID/g | 1.86 ± 0.97 % ID/g | 2.92 ± 2.09 % ID/g | 0.55 ± 0.34 % ID/g | 0.54 ± 0.28 % ID/g | 0.34 ± 0.14 % ID/g | 0.53 ± 0.09 % ID/g | 0.6 ± 0.2 % ID/g | 0.71 ± 0.16 % ID/g | 1.22 ± 0.22 % ID/g | % ID/g (4 h) Stomach (Stomach): 1.74 ± 1.36 % ID/g; % ID/g (24 h) Stomach (Stomach): 0.69 ± 0.46 % ID/g; % ID/g (4 h) Tumor (Tumor): 16.7 ± 10.49 % ID/g; % ID/g (24 h) Tumor (Tumor): 26.12 ± 10.63 % ID/g
2 | COc1cccc(OC)c1-c1cc(C(=O)NC2(C(=O)O)C3CC4CC(C3)CC2C4)nn1-c1ccc(NCCOCCOCCNC(=O)CN2CCN(CC(=O)[O-])CCN(CC(=O)[O-])CCN(CC(=O)[O-])CC2)cc1C(C)C.[177Lu+3] (stereo not shown) [^177Lu-I-10] | 0.93 ± 0.29 % ID/g | 0.04 ± 0.00 % ID/g | 0.23 ± 0.06 % ID/g | 0.04 ± 0.02 % ID/g | 0.41 ± 0.13 % ID/g | 0.04 ± 0.02 % ID/g | 1.86 ± 0.58 % ID/g | 0.14 ± 0.01 % ID/g | 3.02 ± 0.39 % ID/g | 0.31 ± 0.11 % ID/g | 0.96 ± 0.4 % ID/g | 0.14 ± 0.01 % ID/g | 0.74 ± 0.72 % ID/g | 0.4 ± 0.26 % ID/g | 0.13 ± 0.12 % ID/g | 0.01 ± 0.01 % ID/g | 0.07 ± 0.01 % ID/g | 0.04 ± 0.02 % ID/g | 0.3 ± 0.14 % ID/g | 0.12 ± 0.05 % ID/g | % ID/g (72 h) Blood (Blood, 72 h): 0.01 ± 0.00 % ID/g; % ID/g (72 h) Femur (Femur, 72 h): 0.02 ± 0 % ID/g; % ID/g (72 h) Heart (Heart, 72 h): 0.01 ± 0.01 % ID/g; % ID/g (72 h) Intestine (Intestine, 72 h): 0.04 ± 0.01 % ID/g; % ID/g (72 h) Kidney (Kidney, 72 h): 0.04 ± 0.01 % ID/g; % ID/g (72 h) Liver (Liver, 72 h): 0.06 ± 0.02 % ID/g; % ID/g (72 h) Lung (Lung, 72 h): 0.05 ± 0.03 % ID/g; % ID/g (72 h) Muscle (Muscle, 72 h): 0.011 ± 0.01 % ID/g; % ID/g (72 h) Pancreas (Pancreas, 72 h): 0.01 ± 0 % ID/g; % ID/g (72 h) Spleen (Spleen, 72 h): 0.02 ± 0.01 % ID/g; % ID/g (4 h) Stomach (Stomach): 1.88 ± 0.59 % ID/g; % ID/g (24 h) Stomach (Stomach): 0.1 ± 0.07 % ID/g; % ID/g (72 h) Stomach (Stomach, 72 h): 0.04 ± 0.01 % ID/g; % ID/g (4 h) Tumor (Tumor): 17.97 ± 11.04 % ID/g; % ID/g (24 h) Tumor (Tumor): 12.27 ± 7.59 % ID/g; % ID/g (72 h) Tumor (Tumor, 72 h): 4.24 ± 2.71 % ID/g; ratio of tumor AUC verse normal organ AUC (compared to ^177Lu—C2): significantly improved
